# Test results taken from publication PMC8173106, “Modulating Enzyme Function via Dynamic Allostery within Biliverdin Reductase B” (Frontiers in Molecular Biosciences, 2021).
# Target: T1, human BLVRB (biliverdin reductase B) (Homo sapiens, UniProt P30043)
# T1 construct: full length, 206 residues; codon-optimised, pET21b (T164S in pJ401k); N-terminal 6xHis tag removed with thrombin
# T1 sequence (P30043 1-206): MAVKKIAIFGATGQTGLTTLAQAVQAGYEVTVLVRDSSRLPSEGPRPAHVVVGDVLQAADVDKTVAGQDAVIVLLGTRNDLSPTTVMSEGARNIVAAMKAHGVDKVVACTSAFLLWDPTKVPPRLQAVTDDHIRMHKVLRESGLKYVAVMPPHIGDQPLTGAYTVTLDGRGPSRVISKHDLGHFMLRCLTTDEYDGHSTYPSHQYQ
# Test: isothermal titration calorimetry
# Format: binding
# Details: 50 mM bis-tris, pH 6.5, 50 mM NaCl, 20 C; apo enzyme
compound,measurement,value
NC(=O)c1ccc[n+]([C@@H]2O[C@H](COP(=O)(O)OP(=O)(O)OC[C@H]3O[C@@H](n4cnc5c(N)ncnc54)[C@H](OP(=O)(O)O)[C@@H]3O)[C@@H](O)[C@H]2O)c1 [NADP^+],KD,screened for their dissociation constants (KD) to NADP^+ using ITC
